Reference: patent US10723730B2, “Solid forms of a selective CDK4/6 inhibitor” (PFIZER INC., priority 2013, dated 2020)

What was measured:
[1] = physical properties of free base isolated from standard salt break process; format: physicochemical; conditions: free base isolated directly from a standard salt break process
Excerpt: As punch sticking is related to API surface area, API particle size control is critical for minimizing sticking during drug product manufacturing. […] Free base API with similarly poor physical properties was produced by free basing of the existing isethionate salt API or by neutralization of the in situ salt formed in the final step of the API synthesis. In either process, small API primary particles were produced due to the rapid crystallization caused by the dramatic change in solubility with adjustment of the pH.

[2] = free base prepared by traditional salt break procedure; cited from earlier work
[3] = MASS (Material Adhesion Screen for Sticking) Punch; format: physicochemical; conditions: 10% API in standard blend (89.75% Avicel PH102, 0.25% magnesium stearate); up to 100 compressions
Excerpt: The MASS (Material Adhesion Screen for Sticking) Punch was developed in-house to quantitatively assess the sticking propensity of tablet formulations by weighing the amount of adhered powder on removable punch tip after a series of compressions. This test enables formulators to objectively and quickly evaluate the risk of punch sticking during drug product development and troubleshoot sticking observed during clinical tablet manufacturing. To prepare the sample for MASS Punch testing, 10 g of API was diluted in a lightly lubricated standard blend (10% API, 89.75% Avicel PH102 and 0.25% magnesium stearate) and bottle blended (500 mL amber glass bottle) for 500 rotations. The weight of powder adhered to the removable punch tip (½″ round flat faced) was assessed using a microbalance periodically up to 100 compressions of ˜250 mgW tablets at a target solid fraction of 0.85.

[4] = small-scale crystallization studies; format: physicochemical; conditions: 50 mg/mL, 10 mg scale, warmed to reflux
Procedure: A series of small-scale crystallization experiments was run to identify a potential recrystallization solvent system as well as to assess the impact of solvent on the shape of the free base primary particles isolated. An initial set of 14 screening studies were run on a 10 mg scale using sealed vials and an external heat source to warm the 50 mg/mL samples up to reflux temperature. Visual observation identified the samples that went into solution, and photomicroscopy was used to characterize the particles produced.

[5] = UPLC/MS testing of the saturated solution; format: physicochemical; conditions: saturated solution from experiments #3 (NMP) and #11 (10% n-BuOH/NMP) of Table 6
[6] = kinetic solubility measurements (dissolution temperature); format: physicochemical; conditions: 25 mg/mL, max 110° C.
Procedure: In an initial room temperature solubility screening study, a total of 23 solvents were screened. […] Subsequent targeted higher temperature solubility studies were conducted.

[7] = particle size analysis by laser diffraction; format: physicochemical
Procedure: Particle sizes for the recrystallized materials were assessed using laser diffraction methods. Laser diffraction is recognized by standards and guidance agencies including ISO and ASTM and is widely used to determine particle size distributions. In conducting the assessment, the sample is passed through a laser beam which results in laser light scattered at a range of angles. Detectors placed at fixed angles measure the intensity of light scattered at that position. A mathematical model (Mie or Fraunhoffer Theory) is then applied to generate a particle size distribution.
The particle size was analyzed using the laser diffraction (or small angle light scattering) technique by dispersing the dry sample powder with compressed air. Specifically, the particle size distribution was analyzed using the Sympatec HELOS RODOS system equipped with a Vibri dry powder feeder. The powder sample was dispersed with a dispersion pressure of 0.5 bar. In some instances, an Aspiros micro-dosing device was used, and the powder sample was dispersed with a dispersion pressure of 0.2 bar. A suitable lens was selected to cover the particle size range of each sample.

For `CC(=O)c1c(C)c2cnc(Nc3ccc(N4CCNCC4)cn3)nc2n(C2CCCC2)c1=O` [compound 1, 6-acetyl-8-cyclopentyl-5-methyl-2-(5-piperazin-1-yl-pyridin-2-ylamino)-8H-pyrido[2,3-d]pyrimidin-7-one], the “size of hard agglomerates” value [1] is given as “approximately 500 microns”, the “bioavailability in animal studies” value [2] is given as “low” and the “MASS Punch profile (sticking propensity)” value [3] is given as “positive response”. For the same molecule, the Results of recrystallization ([4]; Anisole) was “large particles (lathes or tomahawk shape)”, the Results of recrystallization ([4]; Chlorobenzene) was “small irregular shaped particles” and the Results of recrystallization ([4]; Cyclopentylmethyl ether) was “did not dissolve”. The Results of recrystallization ([4]; DMF) was “small needle shaped particles”, the Results of recrystallization ([4]; Mesitylene) was “small needle shaped particles” and the Results of recrystallization ([4]; NMP) was “small irregular shaped particles”. For the same molecule, the Results of recrystallization ([4]; Propylene glycol) was “small irregular shaped particles”, the Results of recrystallization ([4]; Pyridine) was “small lathe shaped particles” and the Results of recrystallization ([4]; Sulfolane) was “small irregular shaped particles”. For the same molecule, the Results of recrystallization ([4]; Toluene) was “did not dissolve”, the Results of recrystallization ([4]; Trifluorotoluene) was “did not dissolve” and the Results of recrystallization ([4]; m-Xylene) was “small/medium tomahawk shaped particles”. For the same molecule, the Results of recrystallization ([4]; n-Butanol) was “did not dissolve”, the Results of recrystallization ([4]; n-Butyl Acetate) was “did not dissolve” and the “chemical stability in solution (impurity peak by UPLC/MS)” value [5] was “degradation occurred”. The “Dissolution Temp.” value ([6]; 1:1:8 propylene glycol/n-BuOH/anisole (v/v)) was 91.2 °C, the “Dissolution Temp.” value ([6]; 2:1:7 propylene glycol/n-BuOH/anisole (v/v)) was 84.1 °C and the “Dissolution Temp.” value ([6]; 10% 1,4-butanediol/anisole (v/v)) was 109.8 °C. The “Dissolution Temp.” value ([6]; 10% n-BuOH/Anisole (v/v)) was greater than 110° ° C, the “Dissolution Temp.” value ([6]; 10% n-BuOH/NMP (v/v)) was 103.7 °C and the “Dissolution Temp.” value ([6]; 20% n-BuOH/Anisole (v/v)) was 109.7 °C. The “Dissolution Temp.” value ([6]; 25% 1,4-butanediol/anisole (v/v)) was 104.8 °C, the “Dissolution Temp.” value ([6]; 25% n-BuOH/NMP (v/v)) was greater than 110° ° C and the “Dissolution Temp.” value ([6]; 40% n-BuOH/Anisole (v/v)) was 101.4 °C. For the same molecule, the “Dissolution Temp.” value ([6]; Anisole) was greater than 110° ° C, the “Dissolution Temp.” value ([6]; DMAc) was greater than 110° ° C and the “Dissolution Temp.” value ([6]; DMF) was greater than 110° ° C. The “Dissolution Temp.” value ([6]; DMSO) was greater than 110° ° C, the “Dissolution Temp.” value ([6]; NMP) was 97.9 °C and the “Dissolution Temp.” value ([6]; n-BuOH) was greater than 110° ° C. For the same molecule, the “Dissolution Temp.” value ([6]; n-Butyl acetate) was greater than 110° ° C, the “Particle size D [4, 3]” value ([7]; 0.2 Bar ASPIROS dispersion) was 21.33 μm and the “Particle size D [v, 0.1]” value ([7]; 0.2 Bar ASPIROS dispersion) was 5.21 μm. The “Particle size D [v, 0.5]” value ([7]; 0.2 Bar ASPIROS dispersion) was 17.00 μm, the “Particle size D [v, 0.9]” value ([7]; 0.2 Bar ASPIROS dispersion) was 43.59 μm and the D90 ([7]; Table 11) was “approximately 45 μm”.
